In general, EC50 refers to the concentration needed to bring the measured effect to its halfway point.

In one experiment the target is C. elegans Slo-1a (Caenorhabditis elegans, UniProt Q95V25). To be noted: pE50 (negative decadic logarithm of EC50), CHO cells expressing C. elegans Slo-1a; voltage sensitive dye, 70 mM KCl.
The subject of experiment [1] is Nippostrongylus brasiliensis. In words: Nippostrongylus brasiliensis (NIPOBR) adult worms, acetylcholine esterase readout. To be noted: read-out: activity (reduction of AChE compared to negative control); for inhibition at 10 µg/mL: at 10 μg/ml (10 ppm); for inhibition at 1 µg/mL: at 1 μg/ml (1 ppm). As for the experimental part:
In Vitro Assay 3: Nippostrongylus brasiliensis (NIPOBR)
Adult Nippostrongylus brasiliensis were washed with saline buffer containing 100 U/ml penicillin, 0.1 mg/ml streptomycin and 2.5 μg/ml amphotericin B. Test compounds were dissolved in DMSO and worms were incubated in medium in a final concentration of 10 μg/ml (10 ppm) respectively 1 μg/ml (1 ppm). An aliquot of the medium was used to determine the acetylcholine esterase activity in comparison to a negative control. The principle of measuring acetylcholine esterase as readout for anthelmintic activity was described in Rapson et al (1986) and Rapson et al (1987).

The test system of experiment [2] is Dirofilaria immitis microfilariae. In words: Dirofilaria immitis microfilariae (DIROIM L1) motility. To be noted: 72 h, read-out: EC50 (reduction of motility).
The subject of another experiment is Dirofilaria immitis. Description: Dirofilaria immitis (DIROIM L4) larval motility. To be noted: 72 h, read-out: EC50 (reduction of motility).
In another experiment the target is D. immitis Slo-1 (Dirofilaria immitis, UniProt I0DFK5). In words: D. immitis Slo-1, action at a recombinant CHO cell line (membrane potential, FLIPR). The format is cell-based.

SMILES strings stand for the structures.

Chain of D. immitis Slo-1 (I0DFK5 1-1119): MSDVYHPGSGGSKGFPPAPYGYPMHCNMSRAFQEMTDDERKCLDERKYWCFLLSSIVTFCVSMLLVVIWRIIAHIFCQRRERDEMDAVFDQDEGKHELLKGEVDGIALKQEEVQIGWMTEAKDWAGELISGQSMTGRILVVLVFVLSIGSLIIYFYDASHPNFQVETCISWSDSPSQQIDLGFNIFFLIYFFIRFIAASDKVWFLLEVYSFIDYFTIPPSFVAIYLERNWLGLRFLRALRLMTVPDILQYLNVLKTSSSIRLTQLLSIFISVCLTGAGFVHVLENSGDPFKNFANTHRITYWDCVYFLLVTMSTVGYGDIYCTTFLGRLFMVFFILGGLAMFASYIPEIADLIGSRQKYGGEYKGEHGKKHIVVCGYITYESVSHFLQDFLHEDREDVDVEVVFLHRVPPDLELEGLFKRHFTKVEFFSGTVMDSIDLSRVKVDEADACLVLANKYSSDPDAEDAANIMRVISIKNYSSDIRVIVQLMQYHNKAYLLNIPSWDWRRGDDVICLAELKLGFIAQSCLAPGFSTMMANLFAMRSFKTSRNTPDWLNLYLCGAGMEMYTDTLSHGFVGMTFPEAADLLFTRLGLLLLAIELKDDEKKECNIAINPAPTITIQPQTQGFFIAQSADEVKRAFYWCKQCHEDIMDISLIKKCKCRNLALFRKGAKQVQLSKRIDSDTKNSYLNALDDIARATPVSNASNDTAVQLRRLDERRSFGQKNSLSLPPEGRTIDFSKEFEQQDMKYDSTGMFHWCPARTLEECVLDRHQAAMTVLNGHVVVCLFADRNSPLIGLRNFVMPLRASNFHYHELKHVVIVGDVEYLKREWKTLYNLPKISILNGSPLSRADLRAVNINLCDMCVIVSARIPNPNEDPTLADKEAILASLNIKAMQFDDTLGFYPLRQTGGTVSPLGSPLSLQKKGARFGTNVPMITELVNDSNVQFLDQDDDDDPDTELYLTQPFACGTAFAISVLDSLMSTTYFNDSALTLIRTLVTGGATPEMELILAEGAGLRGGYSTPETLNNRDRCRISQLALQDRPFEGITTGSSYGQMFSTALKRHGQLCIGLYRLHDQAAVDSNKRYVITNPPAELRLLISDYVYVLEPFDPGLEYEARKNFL
Chain of C. elegans Slo-1a (Q95V25 whole entry): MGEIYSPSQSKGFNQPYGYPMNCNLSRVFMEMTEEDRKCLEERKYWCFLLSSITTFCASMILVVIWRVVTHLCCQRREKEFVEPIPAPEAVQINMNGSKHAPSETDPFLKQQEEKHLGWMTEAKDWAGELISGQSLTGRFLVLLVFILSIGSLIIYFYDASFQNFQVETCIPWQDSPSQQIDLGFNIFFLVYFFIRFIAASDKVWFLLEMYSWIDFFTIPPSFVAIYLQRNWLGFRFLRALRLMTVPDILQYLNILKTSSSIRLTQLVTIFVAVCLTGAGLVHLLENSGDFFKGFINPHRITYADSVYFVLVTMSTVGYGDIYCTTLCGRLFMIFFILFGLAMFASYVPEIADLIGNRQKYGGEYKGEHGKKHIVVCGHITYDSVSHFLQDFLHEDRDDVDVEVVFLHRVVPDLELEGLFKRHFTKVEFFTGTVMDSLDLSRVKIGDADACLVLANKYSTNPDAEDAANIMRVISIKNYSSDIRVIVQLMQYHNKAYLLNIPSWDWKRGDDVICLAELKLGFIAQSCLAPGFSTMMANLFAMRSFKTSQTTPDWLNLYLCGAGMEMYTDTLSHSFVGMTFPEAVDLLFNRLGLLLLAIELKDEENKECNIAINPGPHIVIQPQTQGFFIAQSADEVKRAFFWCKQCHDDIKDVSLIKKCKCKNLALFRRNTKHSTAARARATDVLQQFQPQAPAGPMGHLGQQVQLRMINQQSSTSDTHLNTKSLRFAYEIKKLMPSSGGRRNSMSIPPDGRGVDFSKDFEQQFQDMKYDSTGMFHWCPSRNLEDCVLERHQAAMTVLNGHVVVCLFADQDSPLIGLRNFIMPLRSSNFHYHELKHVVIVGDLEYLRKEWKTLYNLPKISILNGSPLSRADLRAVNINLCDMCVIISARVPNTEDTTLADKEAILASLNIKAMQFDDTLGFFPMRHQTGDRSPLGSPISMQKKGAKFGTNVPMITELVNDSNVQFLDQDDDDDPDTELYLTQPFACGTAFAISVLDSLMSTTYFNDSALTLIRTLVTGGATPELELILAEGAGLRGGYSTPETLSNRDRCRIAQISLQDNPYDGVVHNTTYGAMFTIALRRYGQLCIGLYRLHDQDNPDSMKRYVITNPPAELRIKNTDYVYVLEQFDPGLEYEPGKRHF
Method for C. elegans Slo-1a: Generation of a Stable C. elegans CHO Cell Line
A CHO cell line was obtained from ATCC, code ATCC CRL-9096. […] The transfection solution included 300 μL OptiMEM (Life Technologies, Nr.: 31985), 2 μL (=6 μg) of plasmid DNA containing the C. elegans Slo 1a gene and 9 μL FugeneHD (Promega, Nr.: E2311), and was added to the cells prior to incubation for 48 hours at 37° C., 5% CO2. The transfection medium was exchanged for the selection medium which contains additional G418 (2 mg/ml, Invitrogen, Nr.: 10131) and the cells were seeded into 384 well plates (300 cells/well). After a few weeks, the remaining surviving cells were tested with a voltage sensitive dye (Membrane Potential Assay Kit, Molecular Devices Nr.: R8034) for K+ channel expression. Positive cell clones were purified by the limited dilution technique. For this the clone with the highest and most robust signal in the voltage sensitive dye assay was further subcloned (incubated) in 384 well plates (0.7 cells/well) in order to obtain clonal purity. This generated a final stable CHO cell line expressing the C. elegans Slo-1a.
Cells were cultured at 37° C. and 5% CO2 in MEMalpha with Gutamax I (Invitrogen, Nr.: 32571), supplemented with 10% (v/v) heat inactivated fetal bovine serum (Invitrogen, Nr.: 10500), G418 (1 mg/ml, Invitrogen, Nr.: 10131). Cells were detached using Accutase (Sigma, Nr.: A6964).
Membrane Potential Measurements
Laboratory compound testing was performed on 384-well microtiter plates (MTPs, Greiner, Nr.: 781092). 8000 cells/well were plated onto 384-well MTPs and cultured for 20 to 24 hours at 37° C. and 5% CO2. After removal of the cell culture medium, the cells were washed once with tyrode (150 mM NaCl, 0.3 mM KCl, 2 mM CaCl2, 1 mM MgCl2, 0.8 mM NaH2PO4, 5 mM Glucose, 28 mM Hepes, pH 7.4) and then loaded with the voltage sensitive dye of the Membrane Potential Assay Kit diluted in tyrode for 1 h at room temperature.
After starting the measurement of fluorescence using a FLIPR Tetra (Molecular Devices, Exc. 510-545 nm, Emm. 565-625 nm), test compounds were added followed by the addition of KCl tyrode (final assay concentration: 70 mM KCl, 2 mM CaCl2, 1 mM MgCl2, 0.8 mM NaH2PO4, 5 mM Glucose, 28 mM Hepes, pH 7.4, including the voltage sensitive dye). The measurement was completed after 7 minutes.
The data were evaluated by using the ActivityBase XLfit software (IDBS) for curve fitting and calculation of the half-maximal effective concentration (EC50) and are reported as negative decadic logarithm (pE50).

As to `O=C(N[C@H]1CCOc2ccccc21)c1cnc2c(-c3cccc(Cl)c3Cl)nccc2c1` [Example T1-15, 8-(2,3-dichlorophenyl)-N-[(4S)-3,4-dihydro-2H-chromen-4-yl]-1,7-naphthyridine-3-carboxamide], the EC50 at C. elegans Slo-1a was in the range of 0.0316 to 0.316 µM.

Regarding `CN(C)c1c(C(=O)N[C@H]2CCOc3ccccc32)cnc2c(-c3cccc(Cl)c3Cl)cncc12` [Example T2-2, 8-(2,3-Dichlorophenyl)-N-[(4S)-3,4-dihydro-2H-chromen-4-yl]-4-(dimethylamino)-1,6-naphthyridine-3-carboxamide], in experiment [1], the inhibition at 10 µg/mL is > 80%. Besides, the EC50 on C. elegans Slo-1a is 0.00316 to 0.0316 µM; in experiment [2] it was < 0.1 mg/L.

Take `COc1ncc2c(N3CCOCC3)c(C(=O)N[C@H]3CCOc4ccccc43)cnc2c1-c1cc(Cl)cc(Cl)c1` [Example T2-9, 8-(3,5-dichlorophenyl)-N-[(4S)-3,4-dihydro-2H-1-benzopyran-4-yl]-7-methoxy-4-(morpholin-4-yl)-1,6-naphthyridine-3-carboxamide]: the values for the EC50 (in the experiment with Dirofilaria immitis; at D. immitis Slo-1; in experiment [2]) were < 0.1 mg/L, 0.00316 to 0.0316 µM and < 0.1 mg/L, respectively. The inhibition at 1 µg/mL in experiment [1] was > 80%. The inhibition at 10 µg/mL in experiment [1] is > 80%.

Regarding `COc1ncc(-c2cc(Cl)cc(Cl)c2)c2ncc(C(=O)N[C@H]3CCOc4ccccc43)c(N3CCOCC3)c12` [Example T2-10, 8-(3,5-dichlorophenyl)-N-[(4S)-3,4-dihydro-2H-1-benzopyran-4-yl]-5-methoxy-4-(morpholin-4-yl)-1,6-naphthyridine-3-carboxamide], the EC50 in the experiment with Dirofilaria immitis was < 0.1 mg/L; on D. immitis Slo-1, 0.0316 to 0.316 µM; in experiment [2] it was < 0.1 mg/L. Also, the inhibition at 1 µg/mL in experiment [1] was > 80%. Also, the inhibition at 10 µg/mL in experiment [1] was > 80%.

As for `CN(C)c1c(C(=O)N[C@H]2CCOc3ccccc32)cnc2c(-c3cccc(Cl)c3Cl)c(Cl)cnc12` [Example T3-8, 7-chloro-8-(2,3-dichlorophenyl)-N-[(4S)-3,4-dihydro-2H-1-benzopyran-4-yl]-4-(dimethylamino)-1,5-naphthyridine-3-carboxamide], the values for the concentration for a half-maximal effect (EC50) (with Dirofilaria immitis; on D. immitis Slo-1; in experiment [2]) were < 0.1 mg/L, 0.00316 to 0.0316 µM and < 0.1 mg/L, respectively. In experiment [1], the inhibition at 1 µg/mL is > 80%. Also, the inhibition at 10 µg/mL in experiment [1] is > 80%.

Turning to `O=C(N[C@H]1CCOc2ccccc21)c1cnc2c(-c3cccc(Cl)c3Cl)c(Cl)cnc2c1N1CCOCC1` [Example T3-9, 7-chloro-8-(2,3-dichlorophenyl)-N-[(4S)-3,4-dihydro-2H-1-benzopyran-4-yl]-4-(morpholin-4-yl)-1,5-naphthyridine-3-carboxamide], the values for the EC50 (with Dirofilaria immitis; on D. immitis Slo-1; in experiment [2]) were < 0.1 mg/L, 0.00316 to 0.0316 µM and < 0.1 mg/L, respectively. In addition, in experiment [1], the inhibition at 1 µg/mL was > 80%. Moreover, the inhibition at 10 µg/mL in experiment [1] is > 80%.

On to `COc1cnc2c(N(C)C)c(C(=O)N[C@H]3CCOc4ccccc43)cnc2c1-c1cc(Cl)cc(Cl)c1` [Example T3-10, 8-(3,5-dichlorophenyl)-N-[(4S)-3,4-dihydro-2H-1-benzopyran-4-yl]-4-(dimethylamino)-7-methoxy-1,5-naphthyridine-3-carboxamide], for which the EC50 was < 0.1 mg/L with Dirofilaria immitis, 0.00316 to 0.0316 µM at D. immitis Slo-1 and < 0.1 mg/L in experiment [2]. Also, in experiment [1], the inhibition at 1 µg/mL was > 80%. The inhibition at 10 µg/mL in experiment [1] is > 80%.

In the case of `CN(C)c1c(C(=O)N[C@H]2CCOc3ccccc32)cnc2c(-c3cc(Cl)cc(Cl)c3)c(F)cnc12` [Example T3-11, 8-(3,5-dichlorophenyl)-N-[(4S)-3,4-dihydro-2H-1-benzopyran-4-yl]-4-(dimethylamino)-7-fluoro-1,5-naphthyridine-3-carboxamide], the EC50 in the experiment on Dirofilaria immitis is < 0.1 mg/L; on D. immitis Slo-1, 0.00316 to 0.0316 µM; in experiment [2] it was < 0.1 mg/L. The inhibition at 1 µg/mL in experiment [1] is > 80%. In experiment [1], the inhibition at 10 µg/mL was > 80%.

With `COc1cnc2c(N(C)C)c(C(=O)N[C@H]3CCOc4ccccc43)cnc2c1-c1cccc(Cl)c1Cl` [Example T3-12, 8-(2,3-dichlorophenyl)-N-[(4S)-3,4-dihydro-2H-1-benzopyran-4-yl]-4-(dimethylamino)-7-methoxy-1,5-naphthyridine-3-carboxamide], the concentration giving a half-maximal response (EC50) in the experiment on Dirofilaria immitis was < 0.1 mg/L; on D. immitis Slo-1, 0.00316 to 0.0316 µM; in experiment [2], < 0.1 mg/L. The inhibition at 1 µg/mL in experiment [1] was > 80%. Moreover, the inhibition at 10 µg/mL in experiment [1] was > 80%.

On to `COc1cnc2c(N3CCOCC3)c(C(=O)N[C@H]3CCOc4ccccc43)cnc2c1-c1cccc(Cl)c1Cl` [Example T3-14, 8-(2,3-dichlorophenyl)-N-[(4S)-3,4-dihydro-2H-1-benzopyran-4-yl]-7-methoxy-4-(morpholin-4-yl)-1,5-naphthyridine-3-carboxamide], for which the EC50 in the experiment on Dirofilaria immitis is < 0.1 mg/L; on D. immitis Slo-1, 0.00316 to 0.0316 µM; in experiment [2], < 0.1 mg/L. Moreover, in experiment [1], the inhibition at 1 µg/mL was > 80%. The inhibition at 10 µg/mL in experiment [1] is > 80%.

Turning to `COc1cnc2c(N3CCOCC3)c(C(=O)N[C@H]3CCOc4ccccc43)cnc2c1-c1cc(F)cc(F)c1F` [Example T3-16, N-[(4S)-3,4-dihydro-2H-1-benzopyran-4-yl]-7-methoxy-4-(morpholin-4-yl)-8-(2,3,5-trifluorophenyl)-1,5-naphthyridine-3-carboxamide], the EC50 in the experiment with Dirofilaria immitis is < 0.1 mg/L; on D. immitis Slo-1, 0.00316 to 0.0316 µM; in experiment [2], < 0.1 mg/L. In experiment [1], the inhibition at 1 µg/mL is > 80%. Besides, the inhibition at 10 µg/mL in experiment [1] was > 80%.

On to `O=C(N[C@H]1CCOc2ccccc21)c1cnc2c(-c3cccc(Cl)c3Cl)c(F)cnc2c1N1CCOCC1` [Example T3-18, 8-(2,3-dichlorophneyl)-N-[(4S)-3,4-dihydro-2H-1-benzopyran-4-yl]-7-fluoro-4-(morpholin-4-yl)-1,5-naphthyridine-3-carboxamide], for which the concentration giving a half-maximal response (EC50) is < 0.1 mg/L with Dirofilaria immitis, 0.00316 to 0.0316 µM at D. immitis Slo-1 and < 0.1 mg/L in experiment [2]. Further, the inhibition at 1 µg/mL in experiment [1] was > 80%. In experiment [1], the inhibition at 10 µg/mL was > 80%.

As for `CN(C)c1c(C(=O)N[C@H]2CCOc3ccccc32)cnc2c(-c3cc(F)cc(F)c3F)c(F)cnc12` [Example T3-19, N-[(4S)-3,4-dihydro-2H-1-benzopyran-4-yl]-4-(dimethylamino)-7-fluoro-8-(2,3,5-trifluorophenyl)-1,5-naphthyridine-3-carboxamide], the EC50 in the experiment with Dirofilaria immitis was < 0.1 mg/L; on D. immitis Slo-1 it was 0.00316 to 0.0316 µM; in experiment [2], < 0.1 mg/L. The inhibition at 1 µg/mL in experiment [1] is > 80%. Further, the inhibition at 10 µg/mL in experiment [1] was > 80%.

`CN(C)c1c(C(=O)N[C@H]2CCOc3ccccc32)nnc2c(-c3ccc(F)c(F)c3)cccc12` [Example T5-4, 8-(3,4-Difluorophenyl)-N-[(4S)-3,4-dihydro-2H-chromen-4-yl]-4-(dimethylamino)cinnoline-3-carboxamide]: the 50% effective concentration (EC50) on D. immitis Slo-1 is 0.0316 to 0.316 µM; at C. elegans Slo-1a it was 0.0316 to 0.316 µM; in experiment [2], < 0.1 mg/L.

On to `COc1c(C(=O)N[C@H]2CCOc3ccccc32)nnc2c(-c3ccc(F)c(F)c3)cccc12` [Example T5-8, 8-(3,4-Difluorophenyl)-N-[(4S)-3,4-dihydro-2H-chromen-4-yl]-4-methoxycinnoline-3-carboxamide], for which the results for the EC50 (on D. immitis Slo-1; at C. elegans Slo-1a; in experiment [2]) were 0.0316 to 0.316 µM, 0.00316 to 0.0316 µM and < 0.1 mg/L, respectively.
